Assay results from US12310236B2, “Encapsulant preventing lead leakage on perovskite, method for encapsulating perovskite to prevent lead leakage and perovskite photosensitive device comprising the same” (PUKYONG NATIONAL UNIVERSITY INDUSTRY—UNIVERSITY COOPERATION …, priority 2023, dated 2025).

Assay: Solvent solubility of the crown ether compounds in the coating solution
Type: physicochemical
Conditions: ethanol coating solution
Description: We prepared a coating solution for performing the perovskite encapsulating method. 18-crown-6-ether (hereafter, referred to as a raw material) was prepared as the crown ether. A compound (hereinafter, referred to as di-benzo) in which only two benzene rings are bonded to the crown ether was prepared as a comparative group. […] The di-benzo was dissolved in ethanol at 0.01 to 0.03% by weight. […] Thus, resulting solutions were prepared.

c1ccc2c(c1)OCCOCCOc1ccccc1OCCOCCO2 [di-benzo]
solvent solubility: ≤ 0.03 % by weight
